# Laboratory results: article PMC6220272, “Scaffold-Hopping from Synthetic Drugs by Holistic Molecular Representation” (Scientific Reports, 2018)
# Key:
# Type in all cases: cell-based
# [1] = target: T1, RARβ (Homo sapiens, UniProt P10826); experiment: Gal4 hybrid reporter gene assay RARβ (selectivity profiling)
# T1 construct: expressed in transfected cells; host or cells: HEK293T
# T1 sequence (P10826 183-417 limits assumed): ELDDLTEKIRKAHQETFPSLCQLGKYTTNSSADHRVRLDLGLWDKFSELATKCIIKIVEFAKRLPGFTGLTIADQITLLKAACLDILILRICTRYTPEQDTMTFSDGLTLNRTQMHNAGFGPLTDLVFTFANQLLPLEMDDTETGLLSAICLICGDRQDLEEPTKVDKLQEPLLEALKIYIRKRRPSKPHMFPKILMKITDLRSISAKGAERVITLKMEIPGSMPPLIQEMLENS
# Procedure: (§1) Moreover, 7 was characterized for its ability to modulate RXR target gene expression under more physiological conditions. Hepatoma cells (HepG2) were incubated with 7 (30 µM) or reference RXR agonist bexarotene (9, 1 µM) for eight hours and mRNA expression of RXR regulated genes ATP-binding cassette transporter A1 (ABCA1), angiopoietin like protein 4 (ANGPTL4) and apolipoprotein E (ApoE) was analysed by quantitative real-time PCR.
# (§2) The Gal4 hybrid reporter gene assays were conducted as reported previously[39]–[41]. pFA-CMV-based constructs comprising the ligand binding domain of the human nuclear receptor in question were used as expression plasmids for the chimera receptors. pFR-Luc (Stratagene) served as reporter plasmid and pRL-SV40 (Promega) for normalization of transfection efficiency and cell growth. The assays were conducted in 96-well format in HEK293T cells that were cultured as described previously[39]–[41]. Transient transfection was carried out using Lipofectamine LTX reagent (Invitrogen) according to the manufacturer’s protocol. After transfection and incubation with test compounds (12–14 h), cells were assayed for luciferase activity using Dual-Glo™ Luciferase Assay System (Promega) according to the manufacturer’s protocol. Luminescence was measured with an Infinite M200 luminometer (Tecan Deutschland GmbH). […]
# [2] = test system: Gal4-responsive reporter gene; experiment: Control experiment without Gal4-RXR hybrid receptor (reporter gene construct and renilla luciferase only)
# Procedure: as §1, §2
# [3] = target: T2, pregnane X receptor [PXR] (Homo sapiens, UniProt O75469); experiment: Gal4 hybrid reporter gene assay PXR (selectivity profiling)
# T2 construct: expressed in transfected cells; host or cells: HEK293T
# T2 sequence (O75469 146-433 limits assumed): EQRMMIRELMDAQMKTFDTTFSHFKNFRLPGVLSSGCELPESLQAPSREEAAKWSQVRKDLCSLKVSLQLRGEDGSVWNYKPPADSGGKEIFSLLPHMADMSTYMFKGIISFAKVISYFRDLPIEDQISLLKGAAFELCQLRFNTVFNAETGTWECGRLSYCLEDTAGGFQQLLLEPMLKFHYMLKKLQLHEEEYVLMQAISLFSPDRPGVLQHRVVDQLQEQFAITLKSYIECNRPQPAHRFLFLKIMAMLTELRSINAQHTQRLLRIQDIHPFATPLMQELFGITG
# Procedure: as §1, §2
# [4] = target: T3, farnesoid X receptor [FXR] (Homo sapiens, UniProt Q96RI1); experiment: Gal4 hybrid reporter gene assay FXR (selectivity profiling)
# T3 construct: expressed in transfected cells; host or cells: HEK293T
# T3 sequence (Q96RI1 262-486 limits assumed): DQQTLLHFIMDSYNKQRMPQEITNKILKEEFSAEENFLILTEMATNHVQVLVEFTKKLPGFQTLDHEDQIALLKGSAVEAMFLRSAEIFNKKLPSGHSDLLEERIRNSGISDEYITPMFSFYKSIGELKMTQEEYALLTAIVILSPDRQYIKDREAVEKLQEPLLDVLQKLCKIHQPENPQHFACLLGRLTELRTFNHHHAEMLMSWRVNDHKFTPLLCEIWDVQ
# Procedure: as §1, §2
# [5] = target: T4, human RXRγ ligand binding domain (Gal4 hybrid receptor) (Homo sapiens, UniProt P48443); experiment: Gal4 hybrid reporter gene assay RXRγ; settings: HEK293T cells, n ≥ 4, read-out: RXRγ EC50 ± SEM
# T4 construct: expressed in transfected cells; host or cells: HEK293T
# T4 sequence (P48443 231-459 limits assumed): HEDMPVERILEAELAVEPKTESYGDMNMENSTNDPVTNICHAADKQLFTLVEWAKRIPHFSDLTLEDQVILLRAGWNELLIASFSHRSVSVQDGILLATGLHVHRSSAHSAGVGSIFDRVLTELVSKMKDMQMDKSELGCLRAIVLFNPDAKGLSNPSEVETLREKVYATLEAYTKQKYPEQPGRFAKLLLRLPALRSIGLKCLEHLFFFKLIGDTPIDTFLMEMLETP
# Procedure: The 20 top-ranked synthetic compounds were selected and tested in vitro for their modulatory activity on RXR (Supplementary Table 1). Compounds were tested in specific hybrid reporter gene assays for RXRα, RXRβ and RXRγ modulation[39]–[41]. These assays rely on a constitutively expressed hybrid receptor composed of the respective human RXR ligand binding domain and the DNA binding domain of the Gal4 receptor from yeast. A Gal4 responsive firefly luciferase was used as reporter gene and constitutively expressed renilla luciferase served as internal control for transfection efficiency and test compound toxicity. All selected compounds were tested at 50 µM concentration on RXRα and for active compounds (Supplementary Fig. 1), dose response curves were recorded on all three RXR subtypes.
# The Gal4 hybrid reporter gene assays were conducted as reported previously[39]–[41]. pFA-CMV-based constructs comprising the ligand binding domain of the human nuclear receptor in question were used as expression plasmids for the chimera receptors. pFR-Luc (Stratagene) served as reporter plasmid and pRL-SV40 (Promega) for normalization of transfection efficiency and cell growth. The assays were conducted in 96-well format in HEK293T cells that were cultured as described previously[39]–[41]. Transient transfection was carried out using Lipofectamine LTX reagent (Invitrogen) according to the manufacturer’s protocol. After transfection and incubation with test compounds (12–14 h), cells were assayed for luciferase activity using Dual-Glo™ Luciferase Assay System (Promega) according to the manufacturer’s protocol. Luminescence was measured with an Infinite M200 luminometer (Tecan Deutschland GmbH). All hybrid assays were validated with reference agonists (PPARα: GW7647; PPARγ: pioglitazone; PPARδ: L165,041; LXRα/β: T0901317; FXR: GW4064; RXRs: bexarotene; RARs: tretinoin; VDR: calcitriol; CAR: CITCO; PXR: SR12813) which yielded EC50 values in agreement with literature. The assays were conducted in duplicates with at least two independent repeats and for active compounds repeated without hybrid receptor coding DNA for every test compound at the highest tested concentration to exclude unspecific effects.
# Supplementary Figure 2. Dose-response curves for RXRα activation. Compounds were tested in specific hybrid reporter gene assays for RXRα, RXRβ and RXRγ modulation.^1–3 These assays rely on a constitutively expressed hybrid receptor composed of the respective human RXR ligand binding domain and the DNA binding domain of the Gal4 receptor from yeast. A Gal4 responsive firefly luciferase was used as reporter gene and constitutively expressed renilla luciferase served as internal control for transfection efficiency and test compound toxicity. […]
smiles,measurement,setting,value
CC(C)(C)c1cc(/C=N/NC(=O)c2ccc(N)cc2)cc(C(C)(C)C)c1 [Compound 7],activity on RARβ,[1],no activity
same,reporter transactivation without hybrid receptor,[2],no reporter transactivation
same,activity on PXR,[3],no activity
same,activity on FXR,[4],no activity
same,EC50,[5],28.2 ± 0.1 µM
